What all share (type): cell-based
Data set [1] deals with Candida albicans ATCC 10231. Briefly: Microbial challenge, Grupo Medifarma. The settings on record: contact time 30 seconds. From the text:
(§1) Tables 1, 2, 3 and 4 (shown hereinafter) present the information obtained after conducting microbiological tests, also known as antimicrobial challenge, of M-DDO against various bacteria, showing its powerful anti-bacterial capacity. Moreover, Table 5 (shown hereinafter) presents the results of M-DDO against Propionibacterium acnes.
(§2) Various antimicrobial challenges have been studied in various institutions in order to evaluate the efficacy of M-DDO [Pirfenidone and M-DDO] against the most frequent microorganisms susceptible to develop resistance and against some microorganisms that may cause grater problem with regard to their eradication because of spore production.
(§3) The initial challenges are conducted with collection microorganisms universally requested for evidencing the efficacy of a product. […] Moreover, results of studies conducted by a company authorized by the authorities to perform challenge studies show results that are similar to the results obtained in the test conducted at UNAM, UAEM and in our laboratory (Grupo Medifarma)(Tables 1, 2 and 3).

In data set [2] the test system is Escherichia coli ATCC 10536. Briefly: Microbial challenge, Grupo Medifarma. The settings on record: contact time 30 seconds.
From the text: as §1, §2, §3

Data set [3] has as its system Escherichia coli ATCC 11229. Briefly: Microbial challenge, Grupo Medifarma. Conditions: contact time 30 seconds.
From the text: as §1, §2, §3

The test system of data set [4] is Klebsiella pneumoniae ATCC 10031. Briefly: Microbial challenge, Grupo Medifarma. The settings on record: contact time 30 seconds.
From the text: as §1, §2, §3

Data set [5] deals with Proteus vulgaris ATCC 6380. Briefly: Microbial challenge, Grupo Medifarma. The settings on record: contact time 30 seconds.
From the text: as §1, §2, §3

In data set [6] the test system is Pseudomonas aeruginosa ATCC 9027. Briefly: Microbial challenge, Grupo Medifarma. Conditions: contact time 30 seconds.
From the text: as §1, §2, §3

For data set [7], the system named is Staphylococcus aureus ATCC 6538. Briefly: Microbial challenge, Grupo Medifarma. Conditions: contact time 30 seconds.
From the text: as §1, §2, §3

Data set [8] has as its system Staphylococcus epidermidis ATCC 12228. Briefly: Microbial challenge, Grupo Medifarma. The settings on record: contact time 30 seconds.
From the text: as §1, §2, §3

The next data set has as its system Salmonella typhi CA-C001. Briefly: Microbial challenge, UNAM. Conditions: contact time 30 seconds.
From the text: as §1, §2, §3

The subject of data set [9] is Candida albicans ATCC 10231. Briefly: Microbial challenge, ARj. The settings on record: contact time 30 seconds.
From the text: as §1, §2, §3

For data set [10], the system named is Klebsiella pneumoniae ATCC 10031. Briefly: Microbial challenge, ARj. Conditions: contact time 30 seconds.
From the text: as §1, §2, §3

Another data set relates to Enterobacter cloacae. Briefly: Challenge with microorganisms collected from hospitalized patients, Universidad Autónoma del Estado de Morelos. Conditions: contact time 30 seconds; isolate from hospitalized patients; UAEM. The procedure: as §1
(§4) A second type of challenges were performed at the Universidad Autónoma del Estado de Morelos with microorganisms collected from hospitalized patients and thus said microorganisms had already been in contact with antimicrobial agents and could show resistance (Table 4).

For a further data set, the system named is Enterobacter faecalis. The data set is described as above. Conditions: contact time 30 seconds; isolate from hospitalized patients; UAEM. The procedure:
as §1, §4

Another data set relates to Escherichia coli. The data set is described as above. The settings on record: contact time 30 seconds; isolate from hospitalized patients; UAEM. As to the method:
as §1, §4

For another data set, the system named is Salmonella enteritidis. The data set is described as above. Conditions: contact time 30 seconds; isolate from hospitalized patients; UAEM. The procedure: as §1, §4
A further data set deals with Salmonella typhi. Described as above. The settings on record: contact time 30 seconds; isolate from hospitalized patients; UAEM. The procedure: as §1, §4
For the next data set, the system named is Serratia marcenses. The description is as above. Conditions: contact time 30 seconds; isolate from hospitalized patients; UAEM. The procedure: as §1, §4
The test system of a further data set is Staphylococcus aureus. The description is as above. Conditions: contact time 30 seconds; isolate from hospitalized patients; UAEM. As to the method: as §1, §4
The test system of a further data set is Propionibacterium acnes. Briefly: Antimicrobial action of Pirfenidone and M-DDO gel.
From the text: as §1

In data set [11] the test system is collection microorganisms. Briefly: Microbial challenge studies at the Universidad Nacional Autónoma de México, summary. The procedure: as §2, §3
The test system of data set [12] is microorganisms isolated from hospitalized patients. Briefly: Challenges with microorganisms isolated from hospitalized patients, summary. Conditions: 30 second contact. The procedure:
as §4

On to “[1,2-diallyl-1-(5-methyl-tetrahydro-2H-pyran-2-yloxy)disulfonium]+6-[(benzyl, methyl, octylammonium) (hydroxymethylamin)(methylamin)]-tetrahydro-2H-pyran-3-oxy] chloride [M-DDO]”, for which the elimination of microorganisms in data set [1], in [2], in [3], in data set [4], in data set [5] and in data set [6] was 100% throughout. Besides, the elimination of microorganisms in data set [7] and in [8] was 100% throughout. In addition, the “elimination of the microbial charge” value in the data set on Salmonella typhi CA-C001 was 99.999%; in data set [9], 100%; in data set [10], 100%; in data set [11], 99.999%. Further, the “reduction of the microbial charge” value in the data set on Enterobacter cloacae is given as 100%; with Enterobacter faecalis, 99.972%; in the data set with Escherichia coli, 99.961%; in the data set on Salmonella enteritidis, 100%; in the data set on Salmonella typhi it was 99.170%; in the data set on Serratia marcenses it was 100%. For the same substance, the results for the “reduction of the microbial charge” value (in the data set with Staphylococcus aureus; in data set [12]) were 99.999% and “at least 99.17%”, respectively. Also, the entries for the “Percentage of reduction of bacteria viability (%)” value with Propionibacterium acnes (exposition time 30 sec), in the data set on Propionibacterium acnes (exposition time 60 sec) and in the data set with Propionibacterium acnes (exposition time 15 min) were 99.999%, 99.999% and 100%, respectively.

The values above are taken from US11766426B2, “Semi-solid topical composition containing pirfenidone and modified diallyl disulfide oxide (M-DDO) for eliminating or preventing acne” (Excalibur Pharmaceuticals, Inc., priority 2012, dated 2023).
